Reference: ChEMBL document CHEMBL5030507, “Structure-Based Design of a Selective Class I Histone Deacetylase (HDAC) Near-Infrared (NIR) Probe for Epigenetic Regulation Detection in Triple-Negative Breast Cancer (TNBC)” (J Med Chem, 2021)

What was measured:
Histone deacetylase 11 = target: T1, Histone deacetylase 11 (Homo sapiens, UniProt Q96DB2); experiment: Inhibition of recombinant human full length HDAC11 expressed in baculovirus infected Sf9 cells measured after 60 mins by FRET assay
T1 sequence (Q96DB2 whole entry): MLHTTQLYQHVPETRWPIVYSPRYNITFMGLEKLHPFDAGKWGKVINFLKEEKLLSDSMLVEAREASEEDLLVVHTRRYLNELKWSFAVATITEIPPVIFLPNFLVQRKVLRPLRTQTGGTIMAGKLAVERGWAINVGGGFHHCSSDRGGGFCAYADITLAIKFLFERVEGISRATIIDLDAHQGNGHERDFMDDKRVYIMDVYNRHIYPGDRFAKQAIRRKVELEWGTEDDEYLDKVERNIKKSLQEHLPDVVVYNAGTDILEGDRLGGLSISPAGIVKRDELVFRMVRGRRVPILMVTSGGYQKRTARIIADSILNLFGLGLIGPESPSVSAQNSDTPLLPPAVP

[1] = Cytotoxicity against human WI-38 cells assessed as cell growth inhibition incubated for 72 hrs by CCK8 assay; assay type: cell-based
Histone deacetylase 1 = Histone deacetylase 1 (Homo sapiens, UniProt Q13547); experiment: Inhibition of recombinant human C-terminal FLAG/His-tagged HDAC1 (1 to 482 residues) expressed in Sf9 insect cells using fluorometric substrate measured after 60 mins by FRET assay
Sequence of Histone deacetylase 1 (Q13547 whole entry, the tested form may be a part): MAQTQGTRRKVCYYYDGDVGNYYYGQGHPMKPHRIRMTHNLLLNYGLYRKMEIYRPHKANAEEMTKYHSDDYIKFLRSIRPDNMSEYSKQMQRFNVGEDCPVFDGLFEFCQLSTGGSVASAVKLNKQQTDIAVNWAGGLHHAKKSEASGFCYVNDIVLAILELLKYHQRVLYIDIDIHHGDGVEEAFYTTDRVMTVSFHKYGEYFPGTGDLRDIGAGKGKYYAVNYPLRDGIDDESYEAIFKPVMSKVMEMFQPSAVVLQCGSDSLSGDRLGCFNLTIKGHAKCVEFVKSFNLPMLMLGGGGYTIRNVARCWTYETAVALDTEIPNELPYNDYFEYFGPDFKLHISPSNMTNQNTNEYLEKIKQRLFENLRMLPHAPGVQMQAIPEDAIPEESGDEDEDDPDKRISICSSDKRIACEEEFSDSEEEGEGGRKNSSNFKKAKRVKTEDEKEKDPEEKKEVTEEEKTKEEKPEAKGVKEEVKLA

Histone deacetylase 9 = Histone deacetylase 9 (Homo sapiens, UniProt Q9UKV0); experiment: Inhibition of recombinant human C-terminal His-tagged HDAC9 (604 to 1066 residues) expressed in baculovirus infected Sf9 insect cells using fluorogenic substrate measured after 60 mins by FRET assay
Histone deacetylase 4 = Histone deacetylase 4 (Homo sapiens, UniProt P56524); experiment: Inhibition of recombinant human N-terminal GST-tagged/C-terminal His-tagged HDAC4 (627 to 1084 residues) expressed in baculovirus infected Sf9 insect cells using fluorogenic substrate measured after 60 mins by FRET assay
Sequence of Histone deacetylase 4 (P56524 whole entry, the tested form may be a part): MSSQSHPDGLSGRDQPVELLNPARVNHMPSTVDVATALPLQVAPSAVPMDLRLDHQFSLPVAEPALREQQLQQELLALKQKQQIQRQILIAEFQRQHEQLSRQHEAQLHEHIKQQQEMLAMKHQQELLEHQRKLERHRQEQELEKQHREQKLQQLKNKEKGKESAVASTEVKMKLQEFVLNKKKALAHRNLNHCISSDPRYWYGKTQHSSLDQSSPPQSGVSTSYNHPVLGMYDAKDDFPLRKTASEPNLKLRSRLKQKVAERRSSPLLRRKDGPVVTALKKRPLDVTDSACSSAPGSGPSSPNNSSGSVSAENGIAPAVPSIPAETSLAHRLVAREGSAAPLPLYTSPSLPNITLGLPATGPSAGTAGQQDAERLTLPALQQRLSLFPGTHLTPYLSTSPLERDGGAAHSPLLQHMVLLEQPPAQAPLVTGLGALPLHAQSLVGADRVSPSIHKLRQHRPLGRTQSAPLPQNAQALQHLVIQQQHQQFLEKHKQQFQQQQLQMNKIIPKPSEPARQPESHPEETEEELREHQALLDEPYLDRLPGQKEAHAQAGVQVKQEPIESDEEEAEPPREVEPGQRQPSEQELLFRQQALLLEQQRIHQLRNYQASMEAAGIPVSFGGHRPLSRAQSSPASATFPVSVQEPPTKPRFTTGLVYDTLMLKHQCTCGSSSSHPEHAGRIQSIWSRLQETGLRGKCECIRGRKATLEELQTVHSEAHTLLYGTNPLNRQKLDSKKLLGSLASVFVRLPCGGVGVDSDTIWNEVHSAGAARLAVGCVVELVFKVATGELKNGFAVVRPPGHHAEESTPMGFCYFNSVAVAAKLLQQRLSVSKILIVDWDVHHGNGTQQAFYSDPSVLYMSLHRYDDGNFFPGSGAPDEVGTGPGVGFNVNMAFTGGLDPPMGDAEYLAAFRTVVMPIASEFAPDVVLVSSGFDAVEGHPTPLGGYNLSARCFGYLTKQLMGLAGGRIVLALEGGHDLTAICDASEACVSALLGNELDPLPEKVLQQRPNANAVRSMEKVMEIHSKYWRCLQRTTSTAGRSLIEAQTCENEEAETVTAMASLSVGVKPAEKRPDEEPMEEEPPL

[2] = target: T2, Protein deacetylase HDAC6 (Homo sapiens, UniProt Q9UBN7); experiment: Inhibition of recombinant human full length N-terminal GST-tagged HDAC6 expressed in Sf9 cells using fluorogenic substrate measured after 60 mins by FRET assay
T2 sequence (Q9UBN7 whole entry): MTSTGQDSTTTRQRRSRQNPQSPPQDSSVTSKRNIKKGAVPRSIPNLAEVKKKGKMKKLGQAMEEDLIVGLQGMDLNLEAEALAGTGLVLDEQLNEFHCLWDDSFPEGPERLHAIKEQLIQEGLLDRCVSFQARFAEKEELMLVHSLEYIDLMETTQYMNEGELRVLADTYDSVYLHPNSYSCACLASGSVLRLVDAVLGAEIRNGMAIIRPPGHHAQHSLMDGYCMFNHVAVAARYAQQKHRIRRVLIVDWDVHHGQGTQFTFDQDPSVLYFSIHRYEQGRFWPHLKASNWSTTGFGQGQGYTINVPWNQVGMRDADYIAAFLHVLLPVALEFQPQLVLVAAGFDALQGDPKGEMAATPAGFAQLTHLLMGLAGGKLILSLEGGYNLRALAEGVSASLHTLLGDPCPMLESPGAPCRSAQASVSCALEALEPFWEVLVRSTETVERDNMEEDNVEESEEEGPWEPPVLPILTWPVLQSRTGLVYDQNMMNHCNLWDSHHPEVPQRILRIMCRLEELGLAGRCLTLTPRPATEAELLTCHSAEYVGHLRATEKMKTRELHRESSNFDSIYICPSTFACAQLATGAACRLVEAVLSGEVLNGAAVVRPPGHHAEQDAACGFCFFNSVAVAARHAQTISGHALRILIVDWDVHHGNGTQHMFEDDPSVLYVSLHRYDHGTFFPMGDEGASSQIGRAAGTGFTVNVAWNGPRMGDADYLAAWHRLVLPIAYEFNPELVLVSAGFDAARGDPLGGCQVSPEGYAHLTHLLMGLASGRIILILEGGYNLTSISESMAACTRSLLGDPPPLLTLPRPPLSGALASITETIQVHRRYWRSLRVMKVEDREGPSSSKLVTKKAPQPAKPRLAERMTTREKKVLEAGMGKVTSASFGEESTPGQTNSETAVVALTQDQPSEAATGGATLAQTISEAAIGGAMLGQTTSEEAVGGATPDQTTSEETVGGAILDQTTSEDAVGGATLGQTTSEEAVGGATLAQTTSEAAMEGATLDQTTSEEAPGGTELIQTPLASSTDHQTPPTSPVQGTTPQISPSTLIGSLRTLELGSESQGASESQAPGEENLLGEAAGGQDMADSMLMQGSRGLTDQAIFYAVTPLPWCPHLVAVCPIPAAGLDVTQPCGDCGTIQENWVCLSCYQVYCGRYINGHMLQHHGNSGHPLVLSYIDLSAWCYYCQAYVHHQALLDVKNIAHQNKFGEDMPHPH

[3] = target: T3, Polyamine deacetylase HDAC10 (Homo sapiens, UniProt Q969S8); experiment: Inhibition of recombinant human N-terminal FLAG tagged HDAC10 (2 to 631 residues) expressed in baculovirus infected Sf9 insect cells using fluorogenic substrate measured after 60 mins by FRET assay
T3 sequence (Q969S8 whole entry): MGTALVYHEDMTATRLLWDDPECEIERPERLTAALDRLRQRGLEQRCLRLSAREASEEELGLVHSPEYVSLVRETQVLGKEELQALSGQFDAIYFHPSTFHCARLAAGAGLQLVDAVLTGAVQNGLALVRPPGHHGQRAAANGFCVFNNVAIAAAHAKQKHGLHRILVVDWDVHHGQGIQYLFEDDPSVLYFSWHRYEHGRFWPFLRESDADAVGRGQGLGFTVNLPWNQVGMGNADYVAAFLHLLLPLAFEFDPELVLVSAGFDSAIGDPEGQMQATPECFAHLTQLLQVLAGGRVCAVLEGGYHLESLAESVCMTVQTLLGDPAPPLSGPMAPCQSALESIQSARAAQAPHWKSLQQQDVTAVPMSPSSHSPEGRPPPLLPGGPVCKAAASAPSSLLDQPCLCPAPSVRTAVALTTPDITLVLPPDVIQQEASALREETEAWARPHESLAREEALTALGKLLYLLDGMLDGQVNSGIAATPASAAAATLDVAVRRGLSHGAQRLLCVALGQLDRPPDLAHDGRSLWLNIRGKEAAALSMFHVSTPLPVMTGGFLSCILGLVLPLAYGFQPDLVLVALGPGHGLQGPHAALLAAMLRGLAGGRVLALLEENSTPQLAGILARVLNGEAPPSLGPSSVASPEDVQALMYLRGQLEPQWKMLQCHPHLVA

MDA-MB-231 = experiment: Antiproliferative activity against triple-negative human MDA-MB-231 cells assessed as cell growth inhibition incubated for 72 hrs by CCK8 assay; assay type: functional
[4] = target: Histone deacetylase 3/Nuclear receptor corepressor 2 (HDAC3/NCoR2) (Homo sapiens, UniProt O15379); experiment: Inhibition of C-terminal His-tagged recombinant human HDAC3 (1 to 428 residues)/N-terminal GST-tagged recombinant human NCoR2 (395 to 489 residues) co-expressed in baculovirus infected Sf9 cells using fluorometric substrate measured after 60 mins by FRET assay
Sequence of Histone deacetylase 3/Nuclear receptor corepressor 2 (HDAC3/NCoR2) (O15379 whole entry, the tested form may be a part): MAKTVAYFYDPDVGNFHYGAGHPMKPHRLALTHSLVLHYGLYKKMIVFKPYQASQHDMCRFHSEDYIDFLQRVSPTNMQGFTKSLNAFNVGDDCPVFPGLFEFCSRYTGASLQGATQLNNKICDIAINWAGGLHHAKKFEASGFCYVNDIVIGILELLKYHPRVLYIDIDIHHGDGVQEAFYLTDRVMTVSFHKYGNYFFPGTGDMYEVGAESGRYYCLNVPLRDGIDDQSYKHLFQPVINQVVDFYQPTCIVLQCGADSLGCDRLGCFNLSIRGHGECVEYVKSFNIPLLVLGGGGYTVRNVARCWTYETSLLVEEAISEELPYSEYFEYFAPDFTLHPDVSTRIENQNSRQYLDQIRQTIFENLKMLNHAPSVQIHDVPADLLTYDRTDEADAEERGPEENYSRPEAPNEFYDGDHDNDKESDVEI
Sequence of Histone deacetylase 3/Nuclear receptor corepressor 2 (HDAC3/NCoR2) (Q9Y618 whole entry, further chain, the tested form may be a part): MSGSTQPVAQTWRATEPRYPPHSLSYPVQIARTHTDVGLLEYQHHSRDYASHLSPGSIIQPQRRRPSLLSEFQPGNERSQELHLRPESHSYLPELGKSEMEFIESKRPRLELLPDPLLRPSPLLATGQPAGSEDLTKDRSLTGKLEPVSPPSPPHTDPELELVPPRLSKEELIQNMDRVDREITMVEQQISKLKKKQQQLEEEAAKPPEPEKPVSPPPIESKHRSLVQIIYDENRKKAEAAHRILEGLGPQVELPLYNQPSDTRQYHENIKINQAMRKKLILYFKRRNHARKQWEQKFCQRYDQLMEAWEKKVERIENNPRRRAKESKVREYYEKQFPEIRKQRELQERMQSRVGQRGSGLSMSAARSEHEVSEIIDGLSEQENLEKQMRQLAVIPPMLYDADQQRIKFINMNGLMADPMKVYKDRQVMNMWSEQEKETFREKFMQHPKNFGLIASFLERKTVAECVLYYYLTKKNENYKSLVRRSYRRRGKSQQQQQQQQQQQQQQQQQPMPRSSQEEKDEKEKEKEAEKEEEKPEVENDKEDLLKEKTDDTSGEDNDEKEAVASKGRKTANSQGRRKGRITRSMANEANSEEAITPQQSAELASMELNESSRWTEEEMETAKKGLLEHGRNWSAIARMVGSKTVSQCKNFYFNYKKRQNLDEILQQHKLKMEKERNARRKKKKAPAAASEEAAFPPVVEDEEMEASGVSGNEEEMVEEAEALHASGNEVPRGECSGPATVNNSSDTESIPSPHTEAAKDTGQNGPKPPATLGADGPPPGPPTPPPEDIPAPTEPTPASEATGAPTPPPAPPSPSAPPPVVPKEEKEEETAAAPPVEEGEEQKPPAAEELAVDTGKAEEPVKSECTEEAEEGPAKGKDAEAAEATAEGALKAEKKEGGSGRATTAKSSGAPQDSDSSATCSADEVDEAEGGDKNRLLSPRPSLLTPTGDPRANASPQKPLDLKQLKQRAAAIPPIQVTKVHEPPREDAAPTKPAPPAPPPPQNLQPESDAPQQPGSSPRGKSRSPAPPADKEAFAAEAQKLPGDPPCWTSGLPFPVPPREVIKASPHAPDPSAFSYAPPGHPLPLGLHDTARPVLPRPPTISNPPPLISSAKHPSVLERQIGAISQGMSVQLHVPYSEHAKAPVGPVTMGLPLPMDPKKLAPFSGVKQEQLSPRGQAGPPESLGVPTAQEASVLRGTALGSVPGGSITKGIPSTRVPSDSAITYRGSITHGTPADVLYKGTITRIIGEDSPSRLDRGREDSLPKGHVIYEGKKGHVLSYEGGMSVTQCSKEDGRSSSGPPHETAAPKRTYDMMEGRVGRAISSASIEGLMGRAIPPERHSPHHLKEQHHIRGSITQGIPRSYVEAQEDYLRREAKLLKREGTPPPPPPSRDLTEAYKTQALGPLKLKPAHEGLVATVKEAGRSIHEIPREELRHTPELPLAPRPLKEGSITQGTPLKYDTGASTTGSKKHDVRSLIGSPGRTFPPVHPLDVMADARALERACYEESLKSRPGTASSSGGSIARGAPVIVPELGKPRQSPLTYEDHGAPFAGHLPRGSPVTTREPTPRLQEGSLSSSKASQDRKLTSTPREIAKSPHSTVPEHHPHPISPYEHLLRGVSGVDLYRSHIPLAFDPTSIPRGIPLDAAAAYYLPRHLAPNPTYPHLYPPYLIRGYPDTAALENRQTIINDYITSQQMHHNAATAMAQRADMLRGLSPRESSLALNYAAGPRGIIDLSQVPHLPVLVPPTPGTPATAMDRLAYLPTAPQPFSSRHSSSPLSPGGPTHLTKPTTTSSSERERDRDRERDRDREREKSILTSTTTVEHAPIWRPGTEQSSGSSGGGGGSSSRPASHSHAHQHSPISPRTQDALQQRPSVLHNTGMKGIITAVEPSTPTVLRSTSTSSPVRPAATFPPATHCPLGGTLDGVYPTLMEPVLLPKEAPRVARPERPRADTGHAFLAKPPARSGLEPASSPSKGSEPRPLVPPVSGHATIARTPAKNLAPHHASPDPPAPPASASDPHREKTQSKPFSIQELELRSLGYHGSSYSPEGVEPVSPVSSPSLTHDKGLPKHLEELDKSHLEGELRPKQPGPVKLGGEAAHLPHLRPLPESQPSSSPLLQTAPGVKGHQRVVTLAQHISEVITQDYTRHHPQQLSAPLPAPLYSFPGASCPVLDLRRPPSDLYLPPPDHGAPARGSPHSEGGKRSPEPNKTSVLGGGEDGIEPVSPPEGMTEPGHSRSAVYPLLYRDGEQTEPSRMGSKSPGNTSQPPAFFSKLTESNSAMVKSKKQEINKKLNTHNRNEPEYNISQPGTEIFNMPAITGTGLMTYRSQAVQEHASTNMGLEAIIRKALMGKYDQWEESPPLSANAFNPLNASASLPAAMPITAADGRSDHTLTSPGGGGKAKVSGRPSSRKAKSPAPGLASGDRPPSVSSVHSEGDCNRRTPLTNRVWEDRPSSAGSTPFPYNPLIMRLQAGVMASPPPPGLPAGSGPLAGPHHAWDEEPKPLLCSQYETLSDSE

IC50 (Histone deacetylase 11): > 10000 nM | IC50 (Histone deacetylase 1): 5.8 nM | IC50 (Histone deacetylase 9): > 10000 nM | IC50 (Histone deacetylase 4): > 10000 nM | IC50 [2]: > 10000 nM | IC50 [3]: > 10000 nM | GI50 (MDA-MB-231): 11.9 nM | IC50 [4]: 10.3 nM
SMILES: C/C=C1\NC(=O)c2csc(n2)CNC(=O)C[C@@H](/C=C/CCSSCCCCCCC)OC(=O)[C@H](CCCCN)NC1=O
GI50 at 72 h [1]: 2320 nM
